Experimental data taken from patent US8536192B2, “6,7-unsaturated-7-carbamoyl substituted morphinan derivative” (priority 2005, dated 2013).
Like-named read-outs stand apart in the source and are kept apart here.

Tests used:
[1] = biological target: opioid δ receptor (Rattus norvegicus (Rat), UniProt P33533); assay: Binding assay of opioid δ receptor ([3H]-DADLE, rat cerebrum membrane)
Procedure: (§1) 1) Method of Preparing Membrane Specimen for Binding Assay
(§2) A rat cerebrum (Slc: SD) which had been stored at −80° C. was used. To a cerebrum which had been weighed was added a 20-fold amount of ice-cooled 10 mM Tris-HCl buffer (pH 7.0), and the mixture was homogenized (25000 rpm, 30 seconds) with Histocolon (NITI-ON), and centrifuged at 36600×g for 20 minutes. To the resulting pellet was added 15 ml of the same buffer, and the mixture was treated with Histocolon similarly, and centrifuged. This washing work was performed two times. After centrifugation, to the resulting pellet was added 15 mL of a 50 mM Tris-HCl buffer (pH 7.4), and this was treated with Histocolon, and finally resuspended in a 10-fold amount of the same buffer, which was used as a crude membrane fraction (Life Sci. 48, 111-116, 1991). The prepared membrane specimen was frozen and stored at −80° C., and at an assay, the specimen was rapidly thawed, and diluted to about 900 μg/mL with a 50 mM Tris-HCl buffer (pH 7.4) after the centrifugation and Histocolon treatment, and was used in an experiment. For measuring a protein concentration of the membrane specimen, Micro BCA Protein Assay Kit (PIERCE) was used.
2) Method of δ Receptor Binding Assay and Data Analysis
Into a tube was placed 480 μl of a rat cerebrum membrane fraction to which 100 mM choline chloride, 3 mM MnCl2 and 100 nM DAMGO had been added, and this was incubated at 25° C. for 2 hours. […] After washing, the filter was transferred to a mini vial for liquid scintillation counter, 5 mL of a scintillator (Cleasol I) was added, this was allowed to stand overnight, and the radioactivity was measured for 3 minutes with a liquid scintillation counter Tri-Carb 2200CA (PACKARD).

[2] = biological target: opioid μ receptor (Rattus norvegicus (Rat), UniProt P33535); assay: Binding assay to opioid μ receptor ([3H]-DAMGO, rat cerebrum membrane)
Procedure: as §1
as §2, with “(pH 7.0), the mixture” for “(pH 7.0), and the mixture”, “(pH 7.4), this was” for “(pH 7.4), and this was”, “Histocolon, and this was finally resuspended” for “Histocolon, and finally resuspended”, “and at a test, the specimen” for “and at an assay, the specimen”
2) Method of μ Receptor Binding Assay and Data Analysis
After washing, the filter was transferred to a mini vial for liquid scintillation counter, 5 mL of a scintillator (Cleasol I) was added, and this was allowed to stand overnight, and the radioactivity was measured for 3 minutes with a liquid scintillation counter Tri-Carb 2200CA (PACKARD).

[3] = system: carbon powder transport of inhibitory activity by morphine; assay: Mouse carbon powder transport assay (antagonism of morphine-inhibited small intestine transport); assay type: in vivo; details: sc, 1 h, test compound 3 mg/kg subcutaneously, 15 minutes before morphine 3 mg/kg
Procedure: 1) Preparation of Test Diet (Carbon Powder)
Using a 10 w/v % arabic gum aqueous solution, a 5 w/v % active carbon solution was prepared, which was used as a test diet.
A ddY line male mouse (5 to 6 weeks old) was used. The mouse was fasted from about 20 or more hours before assay initiation, and water was given ad lib.
The test compound was dissolved in a solvent (DMAA/Solutol/5% meglumine=15/15/70).
Morphine hydrochloride was dissolved in a physiological saline. The test compound, the above solvent and morphine were all administered at a liquid amount of 10 mL/kg.
The test compound 3 mg/kg (test compound administration group) or the solvent (solvent administration group) were subcutaneously administered and, after 15 minutes, amount of 3 mg/kg of morphine was administered to all groups. As a control group, the solvent was subcutaneously administered and, after 15 minutes, a physiological saline was administered.
The test diet 10 mL/kg was orally administered at 15 minutes after administration of morphine. At thirty minutes after administration of the test diet (60 minutes after administration of the test substance), all mice were isolated from esophagus to an ileocecal part near a stomach cardia part. A distance from pyloric part of the stomach to an ileocecal part (full length of small intestine) and a distance until a carbon powder reaching front part (carbon powder movement distance) were measured. The antagonistic activity on the carbon powder transport of inhibitory activity by morphine was calculated as MPE (%) using the following equation. Transport rate (%)=(carbon powder movement distance)/full length of small intestine (cm))×100 M.P.E. (%)={(small intestine transport rate (%) of each individual of test compound administration group−average small intestine transport rate (%) of solvent administration group)/(average small intestine transport rate (%) of control group−average small intestine transport rate (%) of solvent administration group)}×100

[4] = [3H]-DADLE, rat cerebrum membrane fraction, read-out: Ki
[5] = [3H]-DAMGO, rat cerebrum membrane fraction, read-out: Ki

| SMILES | Ki [2] | percent antagonism of morphine-inhibited transport (M.P.E.) at 3 mg/kg [3] | Ki [1] | Ki [2, 5] | further results |
| --- | --- | --- | --- | --- | --- |
| CC(C)(NC(=O)C1=C(O)[C@@H]2Oc3c(O)ccc4c3[C@@]23CCN(CC2CC2)[C@H](C4)[C@]3(O)C1)c1nc(-c2ccccc2)no1 [Compound I-284] | 1.13 nM | 79.6% |  |  | Ki [1, 4]: 0.91 nM |
| COC(=O)C1(NC(=O)C2=C(O)[C@@H]3Oc4c(O)ccc5c4[C@@]34CCN(CC3CC3)[C@H](C5)[C@]4(O)C2)CCC1 [Compound I-199] | 9.45 nM | 62.8% | 12.8 nM |  |  |
| COc1ccc(S(=O)(=O)NC(=O)C2=C(O)[C@@H]3Oc4c(O)ccc5c4[C@@]34CCN(CC3CC3)[C@H](C5)[C@]4(O)C2)cc1 [Compound I-123] |  | 44.1% |  | 1.68 nM |  |
| COCC(C)(COC)NC(=O)C1=C(O)[C@@H]2Oc3c(O)ccc4c3[C@@]23CCN(CC2CC2)[C@H](C4)[C@]3(O)C1 [Compound I-288] | 14.4 nM | 101% | 5.36 nM |  |  |
| COC(=O)C(C)(C)NC(=O)C1=C(O)[C@@H]2Oc3c(O)ccc4c3[C@@]23CCN(CC2CC2)[C@H](C4)[C@]3(O)C1 [Compound I-49] | 16.5 nM | 80% |  |  | Ki [1, 4]: 3.99 nM |
| O=C(C1=C(O)[C@@H]2Oc3c(O)ccc4c3[C@@]23CCN(CC2CC2)[C@H](C4)[C@]3(O)C1)N1CCCC1 [Compound I-7] |  |  | 7.4 nM |  |  |
| O=C(NCCOc1ccccc1)C1=C(O)[C@@H]2Oc3c(O)ccc4c3[C@@]23CCN(CC2CC2)[C@H](C4)[C@]3(O)C1 [Compound I-30] |  |  | 5.34 nM |  |  |
| O=C(Nc1cccnc1)C1=C(O)[C@@H]2Oc3c(O)ccc4c3[C@@]23CCN(CC2CC2)[C@H](C4)[C@]3(O)C1 [Compound I-92] |  |  | 5.23 nM |  |  |
| O=C(NS(=O)(=O)c1ccc(F)cc1)C1=C(O)[C@@H]2Oc3c(O)ccc4c3[C@@]23CCN(CC2CC2)[C@H](C4)[C@]3(O)C1 [Compound I-124] |  | 46.6% |  |  | Ki ([2]; read-out: Ki): 3.9 nM |
| O=C(Nc1cccc(C(=O)O)c1)C1=C(O)[C@@H]2Oc3c(O)ccc4c3[C@@]23CCN(CC2CC2)[C@H](C4)[C@]3(O)C1 [Compound I-188] | 17.3 nM | 74.6% | 3.01 nM |  |  |
| COCC1(NC(=O)C2=C(O)[C@@H]3Oc4c(O)ccc5c4[C@@]34CCN(CC3CC3)[C@H](C5)[C@]4(O)C2)CC1 [Compound I-283] | 20.1 nM | 63.7% | 3.73 nM |  |  |
| COCC(C)(C)NC(=O)C1=C(O)[C@@H]2Oc3c(O)ccc4c3[C@@]23CCN(CC2CC2)[C@H](C4)[C@]3(O)C1 [Compound I-286] | 14 nM | 70.6% | 2.46 nM |  |  |
| CC(C)NC(=O)C1=C(NS(=O)(=O)c2ccc(F)cc2)[C@@H]2Oc3c(O)ccc4c3[C@@]23CCN(CC2CC2)[C@H](C4)[C@]3(O)C1 [Compound I-289] |  | 67% |  | 12.9 nM | Ki [1, 4]: 0.47 nM |
| COC(=O)C1(NC(=O)C2=C(O)[C@@H]3Oc4c(O)ccc5c4[C@@]34CCN(CC3CC3)[C@H](C5)[C@]4(O)C2)CC1 [Compound I-135] |  | 59.7% |  |  | Ki ([1]; read-out: Ki): 9.76 nM; Ki ([2]; read-out: Ki): 1.58 nM |
| Cc1ccc2nc(=O)c3c(n2c1)[C@@H]1Oc2c(O)ccc4c2[C@@]12CCN(CC1CC1)[C@H](C4)[C@]2(O)C3 [Compound I-267] |  | 60% |  | 0.84 nM | Ki [1, 4]: 41.5 nM |
| O=C(Nc1ccccc1)C1=C(O)[C@@H]2Oc3c(O)ccc4c3[C@@]23CCN(CC2CC2)[C@H](C4)[C@]3(O)C1 [Compound I-10] | 4.05 nM |  | 19.9 nM |  |  |
| Cc1cc(NC(=O)C2=C(O)[C@@H]3Oc4c(O)ccc5c4[C@@]34CCN(CC3CC3)[C@H](C5)[C@]4(O)C2)on1 [Compound I-138] |  | 55.8% |  | 15.5 nM |  |
| CC(C)NC(=O)C1=C(O)[C@@H]2Oc3c(O)ccc4c3[C@@]23CCN(CC2CC2)[C@H](C4)[C@]3(O)C1 [Compound I-4, 7-Isopropylaminocarbonylnaltrexone] | 5.18 nM |  | 7.38 nM |  |  |
| Cc1noc(C(C)(C)NC(=O)C2=C(O)[C@@H]3Oc4c(O)ccc5c4[C@@]34CCN(CC3CC3)[C@H](C5)[C@]4(O)C2)n1 [Compound I-285] |  | 82.5% | 5.77 nM | 7.29 nM |  |
| O=C(N[C@H]1CCOC1=O)C1=C(O)[C@@H]2Oc3c(O)ccc4c3[C@@]23CCN(CC2CC2)[C@H](C4)[C@]3(O)C1 [Compound I-145] |  | 60.2% |  | 28.1 nM | Ki [1, 4]: 13.9 nM |
| CCCCNC(=O)C1=C(O)[C@@H]2Oc3c(O)ccc4c3[C@@]23CCN(CC2CC2)[C@H](C4)[C@]3(O)C1 [Compound I-3] |  |  | 8.76 nM |  |  |
| O=C(NS(=O)(=O)c1cccc(Cl)c1)C1=C(O)[C@@H]2Oc3c(O)ccc4c3[C@@]23CCN(CC2CC2)[C@H](C4)[C@]3(O)C1 [Compound I-122] |  | 31.5% |  | 2.7 nM |  |
| CCN(CC)S(=O)(=O)c1ccc(OC)c(NC(=O)C2=C(O)[C@@H]3Oc4c(O)ccc5c4[C@@]34CCN(CC3CC3)[C@H](C5)[C@]4(O)C2)c1 [Compound I-229] |  | 39.7% | 5.9 nM | 1.3 nM |  |
| CN(C)c1ccc(NC(=O)C2=C(O)[C@@H]3Oc4c(O)ccc5c4[C@@]34CCN(CC3CC3)[C@H](C5)[C@]4(O)C2)cc1 [Compound I-39] | 0.33 nM | 52% | 41.8 nM |  |  |
| CN(Cc1ccccc1)C(=O)C1=C(O)[C@@H]2Oc3c(O)ccc4c3[C@@]23CCN(CC2CC2)[C@H](C4)[C@]3(O)C1 [Compound I-13] |  |  | 5.02 nM |  |  |
| Cc1cc(=O)[nH]c2cc(NC(=O)C3=C(O)[C@@H]4Oc5c(O)ccc6c5[C@@]45CCN(CC4CC4)[C@H](C6)[C@]5(O)C3)ccc12 [Compound I-240] |  | 36.3% | 11.5 nM | 6.85 nM |  |
| COc1cc(NC(=O)C2=C(O)[C@@H]3Oc4c(O)ccc5c4[C@@]34CCN(CC3CC3)[C@H](C5)[C@]4(O)C2)ncn1 [Compound I-243] | 5.28 nM | 52.6% | 5.2 nM |  |  |
| COc1ccc(NC(=O)C2=C(O)[C@@H]3Oc4c(O)ccc5c4[C@@]34CCN(CC3CC3)[C@H](C5)[C@]4(O)C2)cn1 [Compound I-118] |  | 55.6% |  |  |  |
| CC(C)NC(=O)C1=C(NS(=O)(=O)c2ccc(Cl)cc2)[C@@H]2Oc3c(O)ccc4c3[C@@]23CCN(CC2CC2)[C@H](C4)[C@]3(O)C1 [Compound I-244] |  | 71.6% |  |  |  |
